Assay results from article PMC5944846 (ACS chemical biology, 2018).
Values after ≈ are worked out from the molar mass of the structure shown. Where two headings read alike, the source gives them in different places.

Test system: E. coli ATCC 25922
Assay: MIC against E. coli ATCC 25922
Assay type: cell-based
Conditions: Escherichia coli

CN(C)[C@@H]1C(O)=C(C(N)=O)C(=O)[C@@]2(O)C(O)=C3C(=O)c4c(O)cccc4[C@@](C)(O)[C@H]3[C@H](O)[C@@H]12 [oxytetracycline] showed an MIC (ATCC25922, read-out: oxytetracycline + 32 μg/mL tyrobetaine MIC) of 8 µg/mL and an MIC (ATCC25922, read-out: oxytetracycline MIC) of 4 µg/mL (≈ 8.69 µM).
